Data published in patent publication US20230019236A1, “PROTEIN TYROSINE PHOSPHATASE INHIBITORS AND METHODS OF USE THEREOF” (Calico Life Sciences LLC, priority 2019, published 2023).

Each compound was assayed against T1, His tagged full-length PTP1B protein (Homo sapiens, UniProt P18031) (assay: Mobility Shift Assay (MSA) used to determine potency of PTP1B inhibitors). Conditions: Table 2.
T1 construct: made in house
T1 sequence (P18031 with tags, fused parts or gaps): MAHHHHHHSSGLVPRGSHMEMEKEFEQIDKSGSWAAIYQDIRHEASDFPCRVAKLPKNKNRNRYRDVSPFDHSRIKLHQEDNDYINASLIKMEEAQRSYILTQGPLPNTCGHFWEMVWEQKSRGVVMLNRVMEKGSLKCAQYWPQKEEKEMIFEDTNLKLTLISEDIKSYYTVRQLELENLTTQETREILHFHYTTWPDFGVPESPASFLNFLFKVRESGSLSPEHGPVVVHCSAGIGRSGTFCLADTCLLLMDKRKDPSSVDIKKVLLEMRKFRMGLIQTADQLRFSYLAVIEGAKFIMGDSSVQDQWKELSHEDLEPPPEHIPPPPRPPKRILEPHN
Format: biochemical
Description: The enzymatic assay used to determine activity is a mobility shift assay using a LabChip EZ Reader by Caliper Life Sciences. The enzymatic reaction was carried out in assay buffer (50 mM HEPES pH 7.5, 1 mM EGTA, 10 mM EDTA, 0.01% Tween® 20, and 2 mM DTT). […] The enzyme (at 0.5 nM) was incubated with compound for 10 minutes at room temperature. […] The % inhibition was then used to calculate the IC50 values.

SMILES | IC50
O=C1CN(c2c(O)cc3ccc(C4=CCN(S(=O)(=O)C5CC5)CC4)cc3c2F)S(=O)(=O)N1 [Compound 297, 5-{7-[1-(cyclopropanesulfonyl)-1,2,3,6-tetrahydropyridin-4-yl]-1-fluoro-3-hydroxynaphthalen-2-yl}-1λ^6,2,5-thiadiazolidine-1,1,3-trione] | 1 to 10 nM
O=C1CN(c2c(O)cc3ccc(C4CCNCC4)cc3c2F)S(=O)(=O)N1 [Compound 299, 5-[1-fluoro-3-hydroxy-7-(piperidin-4-yl)naphthalen-2-yl]-1λ^6,2,5-thiadiazolidine-1,1,3-trione] | 10 to 100 nM
CCOc1ccc2cc(O)c(N3CC(=O)NS3(=O)=O)c(F)c2c1 [Compound 301, 5-(7-ethoxy-1-fluoro-3-hydroxynaphthalen-2-yl)-1λ^6,2,5-thiadiazolidine-1,1,3-trione] | > 100 nM
O=C1CN(c2c(O)cc3ccc(OCC(F)F)cc3c2F)S(=O)(=O)N1 [Compound 302, 5-[7-(2,2-difluoroethoxy)-1-fluoro-3-hydroxynaphthalen-2-yl]-1λ^6,2,5-thiadiazolidine-1,1,3-trione] | 10 to 100 nM
O=C1CN(c2c(O)cc3ccc(-c4cnn(S(=O)(=O)C5CC5)c4)cc3c2F)S(=O)(=O)N1 [Compound 303, 5-{7-[1-(cyclopropanesulfonyl)-1H-pyrazol-4-yl]-1-fluoro-3-hydroxynaphthalen-2-yl}-1λ^6,2,5-thiadiazolidine-1,1,3-trione] | 1 to 10 nM
CS(=O)(=O)N1CC[C@@H](Nc2ccc3cc(O)c(N4CC(=O)NS4(=O)=O)c(F)c3c2)C1 [Compound 304, 5-(1-fluoro-3-hydroxy-7-{[(3R)-1-(methanesulfonyl)pyrrolidin-3-yl]amino}naphthalen-2-yl)-1λ^6,2,5-thiadiazolidine-1,1,3-trione] | 10 to 100 nM
CS(=O)(=O)N1CCC(Nc2ccc3cc(O)c(N4CC(=O)NS4(=O)=O)c(F)c3c2)CC1 [Compound 305, 5-(1-fluoro-3-hydroxy-7-{[1-(methanesulfonyl)piperidin-4-yl]amino}naphthalen-2-yl)-1λ^6,2,5-thiadiazolidine-1,1,3-trione] | > 100 nM
Cc1nn(C)cc1S(=O)(=O)N1CC=C(c2ccc3cc(O)c(N4CC(=O)NS4(=O)=O)c(F)c3c2)C1 [Compound 310, 5-{7-[1-(1,3-dimethyl-1H-pyrazole-4-sulfonyl)-2,5-dihydro-1H-pyrrol-3-yl]-1-fluoro-3-hydroxynaphthalen-2-yl}-1λ^6,2,5-thiadiazolidine-1,1,3-trione] | 1 to 10 nM
CCS(=O)(=O)NCCOc1ccc2cc(O)c(N3CC(=O)NS3(=O)=O)c(F)c2c1 [Compound 311, N-(2-{[8-fluoro-6-hydroxy-7-(1,1,4-trioxo-1λ^6,2,5-thiadiazolidin-2-yl)naphthalen-2-yl]oxy}ethyl)ethanesulfonamide] | 1 to 10 nM
N#Cc1c[nH]c(-c2ccc3cc(O)c(N4CC(=O)NS4(=O)=O)c(F)c3c2)n1 [Compound 321, 2-[8-fluoro-6-hydroxy-7-(1,1,4-trioxo-1λ^6,2,5-thiadiazolidin-2-yl)naphthalen-2-yl]-1H-imidazole-4-carbonitrile] | 1 to 10 nM

More lines, now with the values ahead:

IC50 | SMILES
< 1 nM | O=C1CN(c2c(O)cc3ccc(C4=CCN(S(=O)(=O)CCCC(F)(F)F)C4)cc3c2F)S(=O)(=O)N1 [Compound 290, 5-{1-fluoro-3-hydroxy-7-[1-(4,4,4-trifluorobutane-1-sulfonyl)-2,5-dihydro-1H-pyrrol-3-yl]naphthalen-2-yl}-1λ^6,2,5-thiadiazolidine-1,1,3-trione]
< 1 nM | CCCCS(=O)(=O)N1CC=C(c2ccc3cc(O)c(N4CC(=O)NS4(=O)=O)c(F)c3c2)C1 [Compound 291, 5-{7-[1-(butane-1-sulfonyl)-2,5-dihydro-1H-pyrrol-3-yl]-1-fluoro-3-hydroxynaphthalen-2-yl}-1λ^6,2,5-thiadiazolidine-1,1,3-trione]
< 1 nM | N#CCCCCS(=O)(=O)N1CC=C(c2ccc3cc(O)c(N4CC(=O)NS4(=O)=O)c(F)c3c2)C1 [Compound 293, 5-{3-[8-fluoro-6-hydroxy-7-(1,1,4-trioxo-1λ^6,2,5-thiadiazolidin-2-yl)naphthalen-2-yl]-2,5-dihydro-1H-pyrrole-1-sulfonyl}pentanenitrile]
< 1 nM | CCS(=O)(=O)N1CC=C(c2ccc3cc(O)c(N4CC(=O)NS4(=O)=O)c(F)c3c2)C1 [Compound 295, 5-{7-[1-(ethanesulfonyl)-2,5-dihydro-1H-pyrrol-3-yl]-1-fluoro-3-hydroxynaphthalen-2-yl}-1λ^6,2,5-thiadiazolidine-1,1,3-trione]
< 1 nM | CC(C)S(=O)(=O)N1CC=C(c2ccc3cc(O)c(N4CC(=O)NS4(=O)=O)c(F)c3c2)C1 [Compound 296, 5-{1-fluoro-3-hydroxy-7-[1-(propane-2-sulfonyl)-2,5-dihydro-1H-pyrrol-3-yl]naphthalen-2-yl}-1λ^6,2,5-thiadiazolidine-1,1,3-trione]
< 1 nM | CC(C)CS(=O)(=O)N1CC=C(c2ccc3cc(O)c(N4CC(=O)NS4(=O)=O)c(F)c3c2)C1 [Compound 300, 5-{1-fluoro-3-hydroxy-7-[1-(2-methylpropane-1-sulfonyl)-2,5-dihydro-1H-pyrrol-3-yl]naphthalen-2-yl}-1λ^6,2,5-thiadiazolidine-1,1,3-trione]
< 1 nM | O=C1CN(c2c(O)cc3ccc(C4=CCN(S(=O)(=O)c5ccoc5)C4)cc3c2F)S(=O)(=O)N1 [Compound 312, 5-{1-fluoro-7-[1-(furan-3-sulfonyl)-2,5-dihydro-1H-pyrrol-3-yl]-3-hydroxynaphthalen-2-yl}-1λ^6,2,5-thiadiazolidine-1,1,3-trione]
< 1 nM | CC(C)CCS(=O)(=O)N1CC=C(c2ccc3cc(O)c(N4CC(=O)NS4(=O)=O)c(F)c3c2)C1 [Compound 313, 5-{1-fluoro-3-hydroxy-7-[1-(3-methylbutane-1-sulfonyl)-2,5-dihydro-1H-pyrrol-3-yl]naphthalen-2-yl}-1λ^6,2,5-thiadiazolidine-1,1,3-trione]
< 1 nM | O=C1CN(c2c(O)cc3ccc(C4=CCN(S(=O)(=O)c5ccsc5)C4)cc3c2F)S(=O)(=O)N1 [Compound 314, 5-{1-fluoro-3-hydroxy-7-[1-(thiophene-3-sulfonyl)-2,5-dihydro-1H-pyrrol-3-yl]naphthalen-2-yl}-1λ^6,2,5-thiadiazolidine-1,1,3-trione]
< 1 nM | O=C1CN(c2c(O)cc3ccc(C4=CCN(S(=O)(=O)c5ccccc5)C4)cc3c2F)S(=O)(=O)N1 [Compound 315, 5-{7-[1-(benzenesulfonyl)-2,5-dihydro-1H-pyrrol-3-yl]-1-fluoro-3-hydroxynaphthalen-2-yl}-1λ^6,2,5-thiadiazolidine-1,1,3-trione]
< 1 nM | O=C1CN(c2c(O)cc3ccc(C4=CCN(S(=O)(=O)C5CCC5)C4)cc3c2F)S(=O)(=O)N1 [Compound 316, 5-{7-[1-(cyclobutanesulfonyl)-2,5-dihydro-1H-pyrrol-3-yl]-1-fluoro-3-hydroxynaphthalen-2-yl}-1λ^6,2,5-thiadiazolidine-1,1,3-trione]
